Results from patent US20180250280A1 (BAYER PHARMA AKTIENGESELLSCHAFT, priority 2015, published 2018).

Experiments:
human plasma kallikrein = target: T1, human plasma kallikrein (Homo sapiens, UniProt P03952); assay: Determination of the plasma kallikrein activity (fluorogenic peptide substrate, AMC cleavage); assay type: biochemical; details: plasma kallikrein from Kordia 0.6 nM; substrate H-Pro-Phe-Arg-AMC 10 μM; 30 min at 22° C.; in some cases averages from multiple determinations
T1 construct: purchased Kordia
T1 sequence (P03952 391-638 limits assumed): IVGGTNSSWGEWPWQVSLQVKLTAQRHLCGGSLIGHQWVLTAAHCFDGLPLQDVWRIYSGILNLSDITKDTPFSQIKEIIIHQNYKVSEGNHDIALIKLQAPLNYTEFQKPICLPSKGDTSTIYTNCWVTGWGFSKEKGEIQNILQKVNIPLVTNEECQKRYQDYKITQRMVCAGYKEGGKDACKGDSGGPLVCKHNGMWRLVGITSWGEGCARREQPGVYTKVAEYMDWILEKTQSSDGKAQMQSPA
T1 sequence (P03952 20-390 partner limits assumed): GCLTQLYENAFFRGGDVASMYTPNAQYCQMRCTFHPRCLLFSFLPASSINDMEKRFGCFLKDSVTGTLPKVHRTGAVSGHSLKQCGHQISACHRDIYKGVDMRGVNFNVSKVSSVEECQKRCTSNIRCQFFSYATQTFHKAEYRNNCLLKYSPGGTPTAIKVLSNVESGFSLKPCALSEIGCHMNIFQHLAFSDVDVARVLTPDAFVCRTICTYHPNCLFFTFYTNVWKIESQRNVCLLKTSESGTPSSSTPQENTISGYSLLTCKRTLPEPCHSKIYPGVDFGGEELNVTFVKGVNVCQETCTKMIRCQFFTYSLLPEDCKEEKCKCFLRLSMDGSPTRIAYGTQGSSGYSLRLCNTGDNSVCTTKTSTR
How it was run: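 Kallikrein cleavage of H-Pro-Phe-Arg-AMC was followed by AMC fluorescence (ex 360, em 460) after 15 min enzyme–compound preincubation. IC50 was derived versus DMSO controls over final concentrations of 50 μM to 0.00013 μM.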

human factor XIa = target: T2, human factor XIa (Homo sapiens, UniProt P03951); assay: Measurement of FXIa inhibition (fluorogenic peptide substrate, AMC cleavage); assay type: biochemical; details: factor XIa from Kordia 0.45 nM; substrate Boc-Glu(OBzl)-Ala-Arg-AMC 10 μM; 30 min at 22° C.; in some cases averages from multiple determinations
T2 construct: purchased Kordia
T2 sequence (P03951 388-625 limits assumed): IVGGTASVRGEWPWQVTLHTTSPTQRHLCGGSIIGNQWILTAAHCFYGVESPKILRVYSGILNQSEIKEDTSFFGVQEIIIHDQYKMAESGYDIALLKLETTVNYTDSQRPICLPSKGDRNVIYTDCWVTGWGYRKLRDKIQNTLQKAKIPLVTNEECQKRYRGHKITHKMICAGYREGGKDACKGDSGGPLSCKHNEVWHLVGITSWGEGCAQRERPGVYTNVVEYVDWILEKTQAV
T2 sequence (P03951 19-387 partner limits assumed): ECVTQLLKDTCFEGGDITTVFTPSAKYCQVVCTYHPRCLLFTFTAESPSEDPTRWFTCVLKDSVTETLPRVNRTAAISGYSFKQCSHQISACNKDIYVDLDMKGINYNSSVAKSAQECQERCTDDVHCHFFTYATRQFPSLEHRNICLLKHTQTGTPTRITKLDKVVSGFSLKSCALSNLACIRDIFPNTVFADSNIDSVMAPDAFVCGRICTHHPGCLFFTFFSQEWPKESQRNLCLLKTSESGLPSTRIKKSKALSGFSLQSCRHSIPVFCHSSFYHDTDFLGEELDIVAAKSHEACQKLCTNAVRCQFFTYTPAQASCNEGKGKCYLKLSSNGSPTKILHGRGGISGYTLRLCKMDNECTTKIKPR

| SMILES | IC50 (human plasma kallikrein) [nM] | IC50 (human factor XIa) [nM] |
| --- | --- | --- |
| COc1cn(C(C[C@H](C)OC)C(=O)Nc2ccc3nn(C)cc3c2)c(=O)cc1-c1cc(Cl)ccc1OCC(F)(F)F (mixture of isomers) [Example 37, (4S)-2-{4-[5-Chloro-2-(2,2,2-trifluoroethoxy)phenyl]-5-methoxy-2-oxopyridin-1(2H)-yl}-4-methoxy-N-(2-methyl-2H-indazol-5-yl)pentanamide] | 72 | 7.9 |
| COc1cn([C@@H](CCOC(C)(C)C)C(=O)Nc2ccc(C(=O)O)s2)c(=O)cc1-c1cc(Cl)ccc1OCC(F)(F)F (single isomer, unassigned) [Example 69, 5-{[4-tert-Butoxy-2-{4-[5-chloro-2-(2,2,2-trifluoroethoxy)phenyl]-5-methoxy-2-oxopyridin-1(2H)-yl}butanoyl]amino}thiophene-2-carboxylic acid] | 8.9 | 0.88 |
| COc1cn(C(CCOC(C)(C)C)C(=O)Nc2ccc(C(=O)O)cc2)c(=O)cc1-c1cc(Cl)ccc1OCC(F)(F)F (single isomer, unassigned) [Example 8, 4-[(4-tert-Butoxy-2-{4-[5-chloro-2-(2,2,2-trifluoroethoxy)phenyl]-5-methoxy-2-oxopyridin-1(2H)-yl}butanoyl)amino]benzoic acid] | 19 | 0.94 |
| COc1cn([C@@H](CCOC(C)(C)C)C(=O)Nc2ccc3nc(C(=O)O)cn3c2)c(=O)cc1-c1cc(Cl)ccc1OCC(F)(F)F (single isomer, unassigned) [Example 71, 6-{[4-tert-Butoxy-2-{4-[5-chloro-2-(2,2,2-trifluoroethoxy)phenyl]-5-methoxy-2-oxopyridin-1(2H)-yl}butanoyl]amino}imidazo[1,2-a]pyridine-2-carboxylic acid] | 10 | 0.93 |
| COc1cn(C(CCOC(C)(C)C)C(=O)Nc2ccc(C(=O)O)cc2)c(=O)cc1-c1cc(Cl)ccc1OCC(F)F (racemic) [Example 25, 4-[(4-tert-Butoxy-2-{4-[5-chloro-2-(2,2-difluoroethoxy)phenyl]-5-methoxy-2-oxopyridin-1(2H)-yl}butanoyl)amino]benzoic acid] | 120 | 2.4 |
| COc1cn(C(CCOC(C)(C)C)C(=O)Nc2ccc(C(N)=O)c(F)c2)c(=O)cc1-c1cc(Cl)ccc1OCC(F)F (racemic) [Example 26, 4-[(4-tert-Butoxy-2-{4-[5-chloro-2-(2,2-difluoroethoxy)phenyl]-5-methoxy-2-oxopyridin-1(2H)-yl}butanoyl)amino]-2-fluorobenzamide] | 150 | 25 |
| COc1cn(C(CCOC2(C)CCC2)C(=O)Nc2ccc3nn(C)cc3c2)c(=O)cc1-c1cc(Cl)ccc1OCC(F)(F)F (racemic) [Example 58, 2-[4-[5-Chloro-2-(2,2,2-trifluoroethoxy)phenyl]-5-methoxy-2-oxo-1-pyridyl]-4-(1-methylcyclobutoxy)-N-(2-methylindazol-5-yl)butanamide] | 57 | 14 |
| COc1cn(C(CC2COCCO2)C(=O)Nc2ccc(C(N)=O)nc2)c(=O)cc1-c1cc(Cl)ccc1OCC(F)(F)F (stereo not shown) [Example 18, 5-{[2-{4-[5-Chloro-2-(2,2,2-trifluoroethoxy)phenyl]-5-methoxy-2-oxopyridin-1(2H)-yl}-3-(1,4-dioxan-2-yl)propanoyl]amino}pyridine-2-carboxamide] | 55 | 3.2 |
| COc1cn(C(C[C@H]2CCCCO2)C(=O)Nc2ccc3nn(C)cc3c2)c(=O)cc1-c1cc(Cl)ccc1OCC(F)(F)F (stereo partly drawn) [Example 21, 2-{4-[5-Chloro-2-(2,2,2-trifluoroethoxy)phenyl]-5-methoxy-2-oxopyridin-1(2H)-yl}-N-(2-methyl-2H-indazol-5-yl)-3-[(2R)-tetrahydro-2H-pyran-2-yl]propanamide] | 150 | 16 |
| COc1cn(C(CCOC(C)(C)C)C(=O)Nc2ccc3nc(C(=O)O)cn3c2)c(=O)cc1-c1cc(Cl)ccc1OCC(F)(F)F (racemic) [Example 73, 6-{[4-tert-Butoxy-2-{4-[5-chloro-2-(2,2,2-trifluoroethoxy)phenyl]-5-methoxy-2-oxopyridin-1(2H)-yl}butanoyl]amino}imidazo[1,2-a]pyridine-2-carboxylic acid] | 18 | 2 |
| COCCC(C(=O)Nc1ccc2nn(C)cc2c1)n1cc(OC)c(-c2cc(Cl)ccc2OCC(F)(F)F)cc1=O (racemic) [Example 5, 2-{4-[5-Chloro-2-(2,2,2-trifluoroethoxy)phenyl]-5-methoxy-2-oxopyridin-1(2H)-yl}-4-methoxy-N-(2-methyl-2H-indazol-5-yl)butanamide] | 33 | 4.1 |
| COc1cn(C(Cc2ccn(C)n2)C(=O)Nc2ccc(C(=O)O)cc2)c(=O)cc1-c1cc(Cl)ccc1OCC(F)(F)F (racemic) [Example 13, 4-{[2-{4-[5-Chloro-2-(2,2,2-trifluoroethoxy)phenyl]-5-methoxy-2-oxopyridin-1(2H)-yl}-3-(1-methyl-1H-pyrazol-3-yl)propanoyl]amino}benzoic acid] | 14 | 1.3 |
| CNC(=O)c1ccc(NC(=O)C(C[C@H](C)OC)n2cc(OC)c(-c3cc(Cl)ccc3OCC(F)(F)F)cc2=O)cn1 (mixture of isomers) [Example 36, 5-{[(4S)-2-{4-[5-Chloro-2-(2,2,2-trifluoroethoxy)phenyl]-5-methoxy-2-oxopyridin-1(2H)-yl}-4-methoxypentanoyl]amino}-N-methylpyridine-2-carboxamide] | 70 | 6.2 |

Further lines, results first:

| IC50 (human plasma kallikrein) [nM] | IC50 (human factor XIa) [nM] | SMILES |
| --- | --- | --- |
| 19 | 0.41 | COc1cn([C@@H](C[C@@H]2CCCCO2)C(=O)Nc2ccc(C(=O)O)cc2)c(=O)cc1-c1cc(Cl)ccc1OCC(F)(F)F (single isomer, unassigned) [Example 78] |
| 280 | 14 | COc1cn(C(CC2COCCO2)C(=O)Nc2ccc(C(N)=O)nc2)c(=O)cc1-c1cc(Cl)ccc1OCCF (stereo not shown) [Example 45, 5-{[2-{4-[5-Chloro-2-(2-fluoroethoxy)phenyl]-5-methoxy-2-oxopyridin-1(2H)-yl}-3-(1,4-dioxan-2-yl)propanoyl]amino}pyridine-2-carboxamide] |
| 230 | 19 | COc1cn(C(C[C@H](C)OC)C(=O)Nc2ccc(C(N)=O)c(F)c2)c(=O)cc1-c1cc(Cl)ccc1OCC(F)(F)F (mixture of isomers) [Example 40, 4-{[(4S)-2-{4-[5-Chloro-2-(2,2,2-trifluoroethoxy)phenyl]-5-methoxy-2-oxopyridin-1(2H)-yl}-4-methoxypentanoyl]amino}-2-fluorobenzamide] |
| 180 | 36 | CCCC(C(=O)Nc1ccc(C(=O)NC)nc1)n1cc(OC)c(-c2cc(Cl)ccc2OCC(F)(F)F)cc1=O (racemic) [Example 66, 5-{[2-{4-[5-Chloro-2-(2,2,2-trifluoroethoxy)phenyl]-5-methoxy-2-oxopyridin-1(2H)-yl}pentanoyl]amino}-N-methylpyridine-2-carboxamide] |
| 56 | 16 | COc1cn(C(CCOC(C)C)C(=O)Nc2ccc3nn(C)cc3c2)c(=O)cc1-c1cc(Cl)ccc1OCC(F)(F)F (racemic) [Example 39, 2-{4-[5-Chloro-2-(2,2,2-trifluoroethoxy)phenyl]-5-methoxy-2-oxopyridin-1(2H)-yl}-4-isopropoxy-N-(2-methyl-2H-indazol-5-yl)butanamide] |
| 65 | 6 | COc1cn(C(C[C@@H]2CCCCO2)C(=O)Nc2ccc3nn(C)cc3c2)c(=O)cc1-c1cc(Cl)ccc1OCC(F)(F)F (stereo partly drawn) [Example 51, 2-{4-[5-Chloro-2-(2,2,2-trifluoroethoxy)phenyl]-5-methoxy-2-oxopyridin-1(2H)-yl}-N-(2-methyl-2H-indazol-5-yl)-3-[(2S)-tetrahydro-2H-pyran-2-yl]propanamide] |
| 24 | 1.6 | COc1cn(C(C[C@@H]2CCCCO2)C(=O)Nc2ccc(C(=O)O)s2)c(=O)cc1-c1cc(Cl)ccc1OCC(F)(F)F (stereo partly drawn) [Example 72, 5-({2-{4-[5-Chloro-2-(2,2,2-trifluoroethoxy)phenyl]-5-methoxy-2-oxopyridin-1(2H)-yl}-3-[(2S)-tetrahydro-2H-pyran-2-yl]propanoyl}amino)thiophene-2-carboxylic acid] |
